Reference: patent US5688913A, “CS-1 peptidomimetics, compositions and methods of using the same” (Cytel Corporation, priority 1995, dated 1997)
Square brackets hold non-standard residues; d marks the D form. Peptide text beside a SMILES is read from it. * marks the point of attachment. Phe(4-NO2) = N[C@@H](Cc1ccc([N+](=O)[O-])cc1)C(=O)O; Quinoline3carbonyl = O=C(c1cnc2ccccc2c1)*; Benzenesulfonyl = O=S(=O)(c1ccccc1)*; Pyrazinecarbonyl = O=C(c1cnccn1)*; Brosyl = O=S(=O)(c1ccc(Br)cc1)*; Cha = N[C@@H](CC1CCCCC1)C(=O)O; NHPhenethyl = c1ccc(CCN*)cc1; Phg = N[C@H](C(=O)O)c1ccccc1; Morpholide = C1CN(*)CCO1; Cbz = O=C(OCc1ccccc1)*; PhAc = O=C(Cc1ccccc1)*; Bz = O=C(c1ccccc1)*; NHBu = CCCCN*

Molecular target: VLA-4 (Homo sapiens, UniProt P05556+P13612)
Sequence (P13612 34-1032): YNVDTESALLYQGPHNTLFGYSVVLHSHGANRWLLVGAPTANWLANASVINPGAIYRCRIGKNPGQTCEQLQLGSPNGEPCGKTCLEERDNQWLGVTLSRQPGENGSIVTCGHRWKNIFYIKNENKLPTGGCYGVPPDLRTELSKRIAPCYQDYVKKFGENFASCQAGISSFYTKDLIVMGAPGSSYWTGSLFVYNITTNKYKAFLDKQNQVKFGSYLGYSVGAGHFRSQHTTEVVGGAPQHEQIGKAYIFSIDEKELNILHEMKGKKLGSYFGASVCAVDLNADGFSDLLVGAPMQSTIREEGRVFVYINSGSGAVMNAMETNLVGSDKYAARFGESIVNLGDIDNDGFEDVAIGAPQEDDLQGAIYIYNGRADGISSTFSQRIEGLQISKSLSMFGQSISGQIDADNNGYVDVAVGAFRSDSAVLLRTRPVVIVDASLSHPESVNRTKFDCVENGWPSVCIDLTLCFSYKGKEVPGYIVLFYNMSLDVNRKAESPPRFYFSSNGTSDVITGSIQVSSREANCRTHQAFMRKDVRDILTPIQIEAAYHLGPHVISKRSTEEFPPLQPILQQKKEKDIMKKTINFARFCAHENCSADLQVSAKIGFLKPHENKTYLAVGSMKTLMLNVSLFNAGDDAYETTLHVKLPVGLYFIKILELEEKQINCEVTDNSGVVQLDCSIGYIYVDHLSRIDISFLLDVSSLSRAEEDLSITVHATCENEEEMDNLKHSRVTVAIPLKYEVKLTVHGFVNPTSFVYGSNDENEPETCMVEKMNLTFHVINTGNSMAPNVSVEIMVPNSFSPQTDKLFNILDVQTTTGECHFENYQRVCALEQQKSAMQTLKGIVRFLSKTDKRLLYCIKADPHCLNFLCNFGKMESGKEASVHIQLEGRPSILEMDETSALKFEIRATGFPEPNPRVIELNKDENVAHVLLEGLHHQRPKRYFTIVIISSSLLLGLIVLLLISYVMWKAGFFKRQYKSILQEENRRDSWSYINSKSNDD
Sequence (P05556 21-798): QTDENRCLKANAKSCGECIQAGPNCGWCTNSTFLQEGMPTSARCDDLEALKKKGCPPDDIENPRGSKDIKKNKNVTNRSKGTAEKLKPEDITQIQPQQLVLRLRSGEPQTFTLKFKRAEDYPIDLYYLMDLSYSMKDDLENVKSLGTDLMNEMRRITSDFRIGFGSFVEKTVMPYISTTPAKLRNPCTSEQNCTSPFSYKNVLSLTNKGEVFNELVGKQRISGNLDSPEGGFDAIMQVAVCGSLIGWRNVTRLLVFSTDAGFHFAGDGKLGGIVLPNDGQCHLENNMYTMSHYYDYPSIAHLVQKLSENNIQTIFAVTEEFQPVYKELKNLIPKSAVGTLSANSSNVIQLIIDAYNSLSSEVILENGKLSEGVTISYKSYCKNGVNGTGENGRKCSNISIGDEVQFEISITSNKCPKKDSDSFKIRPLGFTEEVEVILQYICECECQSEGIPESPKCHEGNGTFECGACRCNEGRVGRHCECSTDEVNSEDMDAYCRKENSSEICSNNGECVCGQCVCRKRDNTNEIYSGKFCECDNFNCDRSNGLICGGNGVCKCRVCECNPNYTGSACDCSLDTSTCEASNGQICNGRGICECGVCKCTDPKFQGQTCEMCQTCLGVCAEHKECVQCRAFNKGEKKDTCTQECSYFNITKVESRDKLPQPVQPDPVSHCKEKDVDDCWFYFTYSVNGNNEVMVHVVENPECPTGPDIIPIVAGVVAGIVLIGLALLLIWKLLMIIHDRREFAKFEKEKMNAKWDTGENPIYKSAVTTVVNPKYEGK
Experiment: cell-based
Assay type: cell-based
Design: host or cells: Jurkat (human T lymphoblastic line)
Conditions: not given
Experimental: Binding inhibition is measured here as a concentration of peptide that inhibits one-half the binding between a standard number of Jurkat cells and a standard amount of CS-1 peptide bound to the surface of a microtiter plate well. Those concentrations are conveniently expressed as IC50 values, smaller numbers indicating a lower concentration required to inhibit 50 percent binding and therefore greater potency. Further specifics of this assay are provided hereinafter.
Jurkat cells (ATCC TIB 152), a human T lymphoblastic line, labeled with ^51 chromium were used to assay in vitro binding inhibition provided by various peptides discussed herein.
The plates were prepared as follows: The 25-mer CS-1 peptide (SEQ ID NO:1) dissolved at 0.5-1 μg/ml in a buffer of 0.1M NaHCO3 at pH 9.5 that also contained 10 μg/ml of bovine serum albumin (BSA) or a conjugate of the CS-1 peptide linked to ovalbumin (CS-1-OVA) dissolved at 1-2.5 μg/ml in the same buffer was used as the substrate. Each well of the microtiter plates was coated with 50 μl of substrate or buffer alone for controls. The wells were permitted to dry out completely and were then rinsed twice with PBS at pH 7.4. Non-specific binding sites of each well were then blocked using 200 μl per well of RPMI/1 percent BSA for two hours at room temperature. Both solid phase-affixed substrates provided similar results.
Jurkat cells (3-5×10^6 cells) were placed into a 15 ml Falcon™ round-bottom tube with a cap. The tube was centrifuged, and the extra medium was then removed.
Two hundred microliters of a ^51 Cr labeling solution were added to the centrifuged cells and maintained in contact with the cells for 90-120 minutes in a warm room. This procedure typically provides about 50,000-100,000 cpm/well with about 80-100 percent cell viability. Longer contact times provide a greater amount of labeling but lower cell viability.
The labeled cells are washed with (i) complete medium, (ii) 1 mM EDTA/PBS and then (iii) RPM1/1 percent BSA free of serum components. The cells are centrifuged after each washing. The cells are finally resuspended in serum-free RPMI/1 percent BSA at a concentration of 1×10^6 viable cells/ml, which provides a concentration that is diluted by one-half in the assay.
Inhibitor peptides are prepared as stock solutions at 20 mg/ml in DMSO in 1.5 ml cryogenic screwcap vials, and were stored at -70° C. Using Flow™ round-bottom or V-bottom microtiter plates, the inhibitor peptides were prepared at twice the assay concentration in RPMI/1 percent BSA at 60 μl well.
Four initial dilutions were typically used.
The ^51 Cr-labeled cells (1×10^6 cells at 60 μl/well) were then admixed with the diluted peptide solutions. The admixtures were maintained at room temperature (about 22° C.) for 30 minutes.
One hundred microliters of each inhibitor peptide/cell admixture were transferred to the substrate-coated wells. This was done in triplicate for each dilution. The resulting plates were incubated for 30 minutes at 37° C. and then washed gently three times with RPMI/1 percent BSA at 200 μl/well. Binding was observed microscopically, particularly after the second wash.
The bound cells were then lysed by the addition of a 0.5 percent solution of sodium dodecylsulfate in water at 100 μ/l well. The resulting solutions were then processed for counting and calculation of IC50 values following usual procedures. Appropriate positive and negative controls were used with each plate so that the results of separate assays could be normalized and compared.
The data of Table 1 are so normalized.

RELATIVE POTENCY (relative peptide inhibition of VLA-4 binding CS-1)	SMILES
8	Cc1ccc(C(=O)N[C@@H](CC(C)C)C(=O)N[C@@H](CC(=O)O)C(=O)N[C@H](C(=O)N2CCC[C@@H]2C(N)=O)C(C)C)cc1C [X L D V p 3,4-dimethylbenzoyl amide]
0	CC(C)C[C@H](NS(=O)(=O)c1ccccc1)C(=O)N[C@@H](CC(=O)O)C(=O)N[C@@H](Cc1ccccc1)C(=O)N1CCC[C@@H]1C(N)=O [X L D F p phenylsulfonyl amide] (Benzenesulfonyl-LDF[dP]-NH2)
34	CC(C)C[C@H](NC(=O)OCc1ccccc1)C(=O)N[C@@H](CC(=O)O)C(=O)N[C@@H](Cc1ccccc1)C(=O)N1CCC[C@@H]1C(N)=O [X L D F p benzyloxycarbonyl amide] (Cbz-LDF[dP]-NH2)
8	CC(C)C[C@H](NC(=O)c1ccccn1)C(=O)N[C@@H](CC(=O)O)C(=O)N[C@H](C(=O)N1CCC[C@@H]1C(N)=O)C(C)C [X L D V p pyridine-2-carbonyl amide]
2	CC[C@H](C)[C@H](N)C(=O)N[C@@H](CC(C)C)C(=O)N[C@@H](CC(=O)O)C(=O)N[C@@H](Cc1ccccc1)C(=O)N1CCC[C@@H]1C(N)=O [I L D F p free amine amide] (H-ILDF[dP]-NH2)
2	CC(C)CC(C(=O)NCc1ccccc1)C(=O)N[C@@H](CC(=O)O)C(=O)N[C@@H](Cc1ccccc1)C(=O)N1CCC[C@@H]1C(N)=O (stereo partly drawn)
9	CC(C)C[C@H](NC(=O)c1cnccn1)C(=O)N[C@@H](CC(=O)O)C(=O)N[C@@H](Cc1ccccc1)C(=O)N1CCC[C@@H]1C(N)=O [X L D F p 2-pyrazinecarbonyl amide] (Pyrazinecarbonyl-LDF[dP]-NH2)
0	CC(C)C[C@H](N)C(=O)N[C@@H](CC(=O)O)C(=O)N[C@@H](Cc1ccccc1)C(N)=O [L D F free amine amide] (H-Leu-Asp-Phe-NH2)
1	NC(=O)[C@H]1CCCN1C(=O)[C@H](Cc1ccccc1)NC(=O)[C@H](CC(=O)O)NC(=O)[C@H](CC1CCCCC1)NC(=O)[C@@H](N)Cc1ccccc1 (H-F[Cha]DF[dP]-NH2)
< 1	CC(C)C[C@H](NS(=O)(=O)c1ccc(Br)cc1)C(=O)N[C@@H](CC(=O)O)C(=O)N[C@@H](Cc1ccccc1)C(=O)N1CCC[C@@H]1C(N)=O [X L D F p 4-bromophenylsulfonyl amide] (Brosyl-LDF[dP]-NH2)
56	CC(C)C[C@H](NC(=O)c1cnc2ccccc2c1)C(=O)N[C@@H](CC(=O)O)C(=O)N[C@@H](Cc1ccccc1)C(=O)N1CCC[C@@H]1C(N)=O [X L D F p 3-quinolinecarbonyl amide] (Quinoline3carbonyl-LDF[dP]-NH2)
71	CC(C)C[C@H](NC(=O)c1cccnc1)C(=O)N[C@@H](CC(=O)O)C(=O)N[C@H](C(=O)N1CCC[C@@H]1C(N)=O)C(C)C [X L D V p pyridine-3-carbonyl amide]

Second part, the compound before the results:

SMILES	RELATIVE POTENCY (relative peptide inhibition of VLA-4 binding CS-1)
CC(=O)N[C@@H](CC(C)C)C(=O)N[C@@H](CC(=O)O)C(=O)N[C@H](C(N)=O)C(C)C [L D V acetyl amide, reference compound] (Ac-Leu-Asp-Val-NH2)	1
CC[C@H](C)[C@H](N)C(=O)N[C@@H](CC(C)C)C(=O)N[C@@H](CC(=O)O)C(=O)N[C@H](C(=O)N1CCC[C@H]1C(=O)O)C(C)C [I L D V P free amine free acid, reference compound] (H-ILDVP-OH)	1
CC(C)C[C@H](NC(=O)Cc1ccc(O)c(O)c1)C(=O)N[C@@H](CC(=O)O)C(=O)N[C@@H](Cc1ccccc1)C(=O)N1CCCCC1	81
CC(C)C[C@H](NC(=O)C(C)(C)C)C(=O)N[C@@H](CC(=O)O)C(=O)N[C@H](C(=O)N1CCCC1C(N)=O)C(C)C (single isomer, unassigned) [X L D V P pivaloyl amide]	20
CC[C@H](C)[C@H](N)C(=O)N[C@@H](CC1CCCCC1)C(=O)N[C@@H](CC(=O)O)C(=O)N[C@H](C(=O)N1CCC[C@@H]1C(N)=O)C(C)C (H-I[Cha]DV[dP]-NH2)	< 1
CCC(C)CC(=O)N[C@@H](CC(C)C)C(=O)N[C@@H](CC(=O)O)C(=O)N[C@H](C(=O)N1CCC[C@@H]1C(N)=O)C(C)C (stereo partly drawn) [X L D V p 3-methylvaleroyl amide]	3

Same assay, conditions: normalized IC50 relative to standard peptide of SEQ ID NO:3 (=1); about one-tenth or less of the standard is assigned zero

SMILES	RELATIVE POTENCY (relative peptide inhibition of VLA-4 binding CS-1)
CC(C)C[C@H](NC(=O)Cc1ccccc1)C(=O)N[C@@H](CC(=O)O)C(=O)NC1Cc2ccccc2CN1 (stereo partly drawn)	3
CC(C)C[C@H](NC(=O)Cc1ccccc1)C(=O)N[C@@H](CC(=O)O)C(=O)NC1Cc2ccccc2NC1=O (stereo partly drawn)	31
CC(C)C[C@H](NC(=O)Cc1ccccc1)C(=O)N[C@@H](CC(=O)O)C(=O)NCCc1ccccc1 [X L D Z phenylacetyl phenethylamide] (PhAc-Leu-Asp-NHPhenethyl)	19
CC(C)C[C@H](NC(=O)Cc1ccccc1)C(=O)N[C@@H](CC(=O)O)C(=O)NC1CCCCNC1=O (stereo partly drawn)	27
CC(C)C[C@H](NC(=O)Cc1ccccc1)C(=O)N[C@@H](CC(=O)O)C(=O)N[C@H](C(=O)N1CCC[C@@H]1C(N)=O)c1ccccc1 (PhAc-LD[Phg][dP]-NH2)	61
CC(C)C[C@H](NC(=O)Cc1ccccc1)C(=O)N[C@@H](CC(=O)O)C(=O)N[C@@H](CO)C(=O)N1CCC[C@@H]1C(N)=O [X L D S p phenylacetyl amide] (PhAc-LDS[dP]-NH2)	17
CCCCCCCCCC(=O)OC1CCN(C(=O)[C@H](Cc2ccccc2)NC(=O)[C@H](CC(=O)O)NC(=O)[C@H](CC(C)C)NC(=O)Cc2ccccc2)CC1	1
CC(C)C[C@H](NC(=O)Cc1ccccc1)C(=O)N[C@@H](CC(=O)O)C(=O)N[C@@H](Cc1ccc([N+](=O)[O-])cc1)C(=O)N1CCC[C@@H]1C(N)=O (PhAc-LD[Phe(4-NO2)][dP]-NH2)	40
CC(C)C[C@H](NC(=O)Cc1ccccc1)C(=O)N[C@@H](CC(=O)O)C(=O)NCC(=O)N1CCOCC1 [X L D G Z phenylacetyl morpholinamide] (PhAc-Leu-Asp-Gly-Morpholide)	9
CC(C)C[C@H](NC(=O)Cc1ccccc1)C(=O)N[C@@H](CC(=O)O)C(=O)NC(c1ccccc1)c1ccccc1 [X L D Z phenylacetyl benzylhydrylamide]	3
CC(C)C[C@H](NC(=O)Cc1ccccc1)C(=O)N[C@@H](CC(=O)O)C(=O)NC1Cc2ccccc2N(CC(C)C)C1=O (stereo partly drawn)	6
CCCCNC(=O)[C@H](Cc1ccccc1)NC(=O)[C@H](CC(=O)O)NC(=O)[C@H](CC(C)C)NC(=O)Cc1ccccc1 [X L D F Z phenylacetyl n-butylamide] (PhAc-Leu-Asp-Phe-NHBu)	3
CC(C)C[C@H](NC(=O)c1ccccc1)C(=O)N[C@@H](CC(=O)O)C(=O)N[C@@H](Cc1ccccc1)C(=O)N1CCC[C@@H]1C(N)=O [X L D F p benzoyl amide] (Bz-LDF[dP]-NH2)	75
CCCCCCCCCCCCCCCCCC(=O)OC1CCN(C(=O)[C@H](Cc2ccccc2)NC(=O)[C@H](CC(=O)O)NC(=O)[C@H](CC(C)C)NC(=O)Cc2ccccc2)CC1	1
CC(C)C[C@H](NC(=O)Cc1ccccc1)C(=O)N[C@@H](CC(=O)O)C(=O)NN(Cc1ccccc1)C(=O)C1CCCC1	1
